Patent publication US6878689B2, “Preventives or remedies for heart failure” (Kaken Pharmaceutical Co., Ltd., priority 2000, dated 2005)
Where a SMILES comes first, the peptide text is derived from it. Where no end group is shown, it is not given here. [ ]: non-standard residue; d: D form. dTrp(2-Me) = Cc1[nH]c2ccccc2c1C[C@@H](N)C(=O)O

Tested on: papillary muscle of guinea-pig
Assay: Myocardial contractility (developed tension) in isolated, electrically driven papillary muscle of guinea-pig
Settings: for tension development (positive inotropic action) vs baseline: cumulative 10, 30 and 100 μM, n=5, FIG. 1; for change in developed tension: isolated guinea-pig papillary muscle, 1 Hz
Description: [Test Example 1] Myocardial Contractility Enhancing Action of Pralmorelin in the Papillary Muscle of Guinea-Pig
The direct effect of pralmorelin on myocardial contractility was evaluated using the isolated cardiac muscle of guinea-pigs according to the standard method for evaluating myocardial contractility. • 1. Materials and Experimental Method • 1) Animal Used
Male Hartley guinea-pigs (body weight, 301-350 g; Japan SLC) were purchased. The animals were accommodated to an environment at a temperature of 23±2° C. and a humidity of 55±15% under 12-hr light/dark cycles while they were allowed to eat and drink water ad libitum until they weighed 360-480 g. Each test substance was tested on a group of five animals. • 2) Reagents Used
The test substances were pralmorelin dihydrochloride (KP-102), representatives of growth hormone secretagogues such as hexarelin, ghrelin and ibutamorelin methanesulfonate (the last being hereunder referred to as MK-0677) (which were prepared by the method described in JP 6-263737 A (kokai)), as well as a recombinant human growth hormone (Sumitomo Pharmaceutical) and amrinone (Sigma) which is a known therapeutic of acute heart failure. KP-102, hexarelin and MK-0677 were dissolved in distilled water. Ghrelin was dissolved in physiological saline. Amrinone was first dissolved in dimethyl sulfoxide and then diluted with physiological saline. The growth hormone was dissolved in a dedicated solubilizer (0.3 w/v % metacresol and 3.9 w/v % D-mannitol). None of the test substance solutions should be added in an amount exceeding 1 w/v %. All reagents other than the test substances were guaranteed products of Nacalai Tesque. • 3) Preparing Specimens of the Isolated Papillary Muscle
The guinea-pigs were stunned with a blow to the back of their head; thereafter, the carotid artery was incised and the animals were exsanguinated to death. The chest was opened, the blood vessels in the upper part of the heart were cut and the heart was removed. The heart was immediately transferred into a Krebs-Henseleit (K-H) nutrient solution (NaCl, 118.0 mM; KCl, 4.7 mM; CaCl2. 2H2O, 1.0 mM; KH2PO4, 1.2 mM; MgSO4.7H2O, 1.2 mM; NaHCO3, 25.0 mM; glucose, 11.0 mM) that had been fully aerated with 95% O2-5% CO2. The heart was fixed on a rubber-lined Petri dish with needles such that its front face was seen. The ventricular wall of the upper right ventricle (toward the atrium) was excised transversely along the atrium, then excised longitudinally along the interventricular septum so that the ventricular wall was opened to expose the right ventricular papillary muscle. Subsequently, the entire surface of the left ventricle was cut open from the aorta (down) to the apex and the anterior wall of the left ventricle was opened wide, to both right and left, and fixed to expose the papillary muscle of the left ventricle. The tricupsid or mitral valve was cut off from the ventricle and the papillary muscle was cut off at the base to prepare a specimen of papillary muscle. The base of the specimen was fixed to field stimulating electrodes in an organ bath filled with 15 mL of the nutrient solution. The tendinous cord adhering to the valve was tied up with a thread and connected to an FD pickup (TB-612T, Nihon Kohden). A resting tension of 0.5 g was loaded and the papillary muscle was driven with an electric stimulator (SEN-3201, Nihon Kohden) at a frequency of 1 Hz by pulses of 20-ms duration and at a voltage intensity about 1.2 times the threshold. After an equilibration period of about 1 hr, KP-102, hexarelin and amrinone were each applied cumulatively up to amounts of 10, 30 and 100 μM. After examination of the changes in inotropic action due to the application of the test substances, 12.5 mM of CaCl2 was added and the maximum tension that was developed by each specimen was obtained. […]

Compound: Nc1cc(-c2ccncc2)c[nH]c1=O [amrinone]
- tension development (positive inotropic action) vs baseline: increased in a concentration-dependent manner

Compound: recombinant human growth hormone: recombinant human growth hormone (Sumitomo Pharmaceutical)
- change in developed tension (0.2 IU/mL): no changes in the developed tension

Compound: CC(C)(N)C(=O)N[C@H](COCc1ccccc1)C(=O)N1CCC2(CC1)CN(S(C)(=O)=O)c1ccccc12 [MK-0677, ibutamorelin methanesulfonate]
- change in developed tension (100 μM): no changes in the developed tension

Compound: Cc1[nH]c2ccccc2c1C[C@@H](NC(=O)[C@@H](N)Cc1cnc[nH]1)C(=O)N[C@@H](C)C(=O)N[C@@H](Cc1c[nH]c2ccccc12)C(=O)N[C@H](Cc1ccccc1)C(=O)N[C@@H](CCCCN)C(N)=O [hexarelin] (H-H[dTrp(2-Me)]AW[dF]K-NH2)
- tension development (positive inotropic action) vs baseline: very weak and by no means significant over the baseline value

Compound: ghrelin (GSSFLSPEHQRVQQRKESKKPPAKLQPR; ends and bridges not checked; UniProt Q9UBU3 24-51, looked up) [representative growth hormone secretagogue]
- change in developed tension (1 μM): no changes in the developed tension
